Data as given in patent US5000966A, “Quality improvement of alcoholic liquors by enzymatic decomposing of ethyl carbamate” (Takeda Chemical Industries, Ltd., priority 1987, dated 1991).

System: Candida krusoides ATCC 7345 enzyme capable of decomposing ethyl carbamate (partially purified crude enzyme of Example 5)
Experiment: Km of the ethyl carbamate-decomposing enzyme (ammonia formation, nitroprusside method)
Assay type: biochemical
Conditions: pH 4, 0.2M citrate buffer; substrate not given, taken as ethyl carbamate
Method: The activity of decomposing ethyl carbamate in the culture broth or its processed matter was determined colorimetrically by the nitroprusside method on ammonia produced by the reaction at 30° C. for 30 minutes of the mixture of a volume of a suspension of the cells in sterilized deionized water collected by centrifugation of the culture which had been diluted appropriately, […] The amount of enzyme to produce one micromole of ammonia per unit time (one minute) is expressed as 1 unit (1U). Candida krusoides ATCC 7345 was cultivated in the same manner as described in Example 1 to give 2 l of a culture broth having an activity of 0.007 U/ml for decomposing ethyl carbamate. The cells were collected from the culture broth by centrifugation, washed with 0.05M phosphate buffer (pH 7.2) twice, suspended in a solution containing 1 mM of EDTA and 1 mM of dithiothreitol, broken down by treating with a cell mill containing glass beads having 0.1-0.2 mm in diameter and were treated at 4500 rpm for 20 minutes The treated product was centrifuged and to the supernatant was added ammonium sulfate so that the concentration comes to 90%. […]

Work on `CCOC(N)=O` [ethyl carbamate] yielded a Km of 65 mM.
